Tests used:
in vivo [1] = details: rat, cerebrospinal fluid, ip, 5 mg/kg
Description: Drug uptake in CSF in rat at 5 mg/kg, ip after 1 hr

in vivo [2] = details: rat, plasma, iv, 2 mg/kg
in vitro = details: rat, in vivo
Description: Intrinsic clearance in rat

in vivo [3] = details: rat, plasma, ip, 5 mg/kg
Description: Plasma concentration in rat at 5 mg/kg, ip after 1 hr

in vivo [4] = details: rat, iv, 2 mg/kg
Description: Half life in rat at 2 mg/kg, iv

[5] = biological target: Leucine-rich repeat serine/threonine-protein kinase 2 (Homo sapiens, UniProt Q5S007)
Description: Inhibition of GST-tagged human recombinant wild type LRRK2 using fluorescein- ERM as substrate after 1 hr by TR-FRET assay

in vivo [6] = details: rat, po, 10 mg/kg
in vivo [7] = details: rat, po, 10 mg/kg; remark: listed apart in the source
in vivo [8] = details: rat, po, 10 mg/kg; remark: listed apart in the source
[9] = Protein binding in rat plasma; type: ADME, cell-free; details: read-out: PPB (converted)

Chain of Leucine-rich repeat serine/threonine-protein kinase 2 (Q5S007 whole entry): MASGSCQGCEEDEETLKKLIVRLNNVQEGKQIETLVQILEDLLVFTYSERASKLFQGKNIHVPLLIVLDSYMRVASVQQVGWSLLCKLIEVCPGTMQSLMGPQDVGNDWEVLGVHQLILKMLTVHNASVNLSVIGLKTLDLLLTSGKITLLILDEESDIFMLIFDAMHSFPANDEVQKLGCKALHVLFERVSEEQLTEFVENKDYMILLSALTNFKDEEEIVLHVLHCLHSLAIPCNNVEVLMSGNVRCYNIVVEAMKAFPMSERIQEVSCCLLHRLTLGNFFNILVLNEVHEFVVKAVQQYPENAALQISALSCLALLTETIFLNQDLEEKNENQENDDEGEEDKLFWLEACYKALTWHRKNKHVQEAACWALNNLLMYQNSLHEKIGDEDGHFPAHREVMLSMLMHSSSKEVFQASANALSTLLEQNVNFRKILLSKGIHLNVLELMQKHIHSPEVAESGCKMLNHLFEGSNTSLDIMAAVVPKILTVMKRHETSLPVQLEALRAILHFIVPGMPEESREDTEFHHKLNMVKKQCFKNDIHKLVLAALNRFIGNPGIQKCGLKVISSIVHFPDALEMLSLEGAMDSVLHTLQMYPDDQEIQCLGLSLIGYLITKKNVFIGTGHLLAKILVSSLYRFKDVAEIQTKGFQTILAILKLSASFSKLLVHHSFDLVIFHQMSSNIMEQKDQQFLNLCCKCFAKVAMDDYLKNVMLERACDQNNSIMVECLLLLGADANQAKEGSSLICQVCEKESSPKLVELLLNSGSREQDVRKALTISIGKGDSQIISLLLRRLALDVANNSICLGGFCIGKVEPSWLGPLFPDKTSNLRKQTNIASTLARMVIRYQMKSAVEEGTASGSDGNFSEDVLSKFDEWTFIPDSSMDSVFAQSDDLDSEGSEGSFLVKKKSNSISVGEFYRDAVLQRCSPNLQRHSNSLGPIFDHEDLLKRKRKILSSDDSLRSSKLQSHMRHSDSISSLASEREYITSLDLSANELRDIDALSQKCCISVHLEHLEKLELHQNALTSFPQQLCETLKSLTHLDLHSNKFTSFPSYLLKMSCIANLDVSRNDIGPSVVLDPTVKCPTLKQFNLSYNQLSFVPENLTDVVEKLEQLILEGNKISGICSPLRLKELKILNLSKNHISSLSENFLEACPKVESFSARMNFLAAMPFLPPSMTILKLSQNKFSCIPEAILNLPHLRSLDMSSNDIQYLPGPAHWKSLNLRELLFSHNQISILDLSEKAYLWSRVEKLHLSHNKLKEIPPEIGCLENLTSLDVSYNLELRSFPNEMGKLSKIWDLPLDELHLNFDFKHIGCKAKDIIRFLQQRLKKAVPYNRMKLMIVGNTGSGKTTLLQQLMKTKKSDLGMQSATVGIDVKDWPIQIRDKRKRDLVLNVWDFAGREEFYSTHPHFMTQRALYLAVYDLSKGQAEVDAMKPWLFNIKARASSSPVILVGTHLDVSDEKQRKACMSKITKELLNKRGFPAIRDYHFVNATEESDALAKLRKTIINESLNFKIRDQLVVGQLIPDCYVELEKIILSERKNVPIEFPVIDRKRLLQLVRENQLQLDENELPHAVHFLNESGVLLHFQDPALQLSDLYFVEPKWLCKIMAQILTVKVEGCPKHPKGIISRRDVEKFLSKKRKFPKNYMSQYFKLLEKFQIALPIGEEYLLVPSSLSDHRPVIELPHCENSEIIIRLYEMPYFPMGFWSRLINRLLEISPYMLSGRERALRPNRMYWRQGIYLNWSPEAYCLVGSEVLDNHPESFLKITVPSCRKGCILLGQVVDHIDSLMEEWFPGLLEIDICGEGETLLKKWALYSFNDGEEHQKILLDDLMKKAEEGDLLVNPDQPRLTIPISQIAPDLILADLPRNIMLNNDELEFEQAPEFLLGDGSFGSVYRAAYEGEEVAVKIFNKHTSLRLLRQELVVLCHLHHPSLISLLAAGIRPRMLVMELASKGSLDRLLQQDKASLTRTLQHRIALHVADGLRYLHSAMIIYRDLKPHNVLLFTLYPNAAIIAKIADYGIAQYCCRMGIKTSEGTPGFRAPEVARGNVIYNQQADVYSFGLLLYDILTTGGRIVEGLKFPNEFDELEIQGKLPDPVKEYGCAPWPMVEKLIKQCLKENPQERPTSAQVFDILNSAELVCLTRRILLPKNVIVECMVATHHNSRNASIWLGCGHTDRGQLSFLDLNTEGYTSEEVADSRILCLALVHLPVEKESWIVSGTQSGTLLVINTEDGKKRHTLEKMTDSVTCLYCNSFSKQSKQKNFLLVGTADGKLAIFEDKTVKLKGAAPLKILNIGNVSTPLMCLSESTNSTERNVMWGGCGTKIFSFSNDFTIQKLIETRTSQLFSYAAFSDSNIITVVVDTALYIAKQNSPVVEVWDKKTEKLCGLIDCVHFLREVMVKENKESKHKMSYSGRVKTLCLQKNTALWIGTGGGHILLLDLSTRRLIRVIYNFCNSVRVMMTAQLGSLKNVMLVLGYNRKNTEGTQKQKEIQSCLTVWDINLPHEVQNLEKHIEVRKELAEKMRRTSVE

| Structure (SMILES) | Ki [5] [nM] | other results |
| --- | --- | --- |
| CSc1sc(-c2cc[nH]n2)c2c1C(=O)N(C)CC2 | 5570 | – |
| CSc1sc(-c2cc[nH]n2)c2c1C(=O)NC(c1cccc(F)c1)C2 (racemic) | 3290 | – |
| CC1(C)CC(=O)c2c(OC3CCCC3)sc(-c3cc[nH]n3)c2C1 | 475 | – |
| CSc1sc(-c2cc[nH]n2)c2c1C(=O)CC(C)(C)C2 | 377 | – |
| CSc1sc(-c2ccn(C)n2)c2c1C(=O)CC(C)(C)C2 | 5580 | – |
| O=C1CCCc2c(-c3cc[nH]n3)sc(NC3CCCC3)c21 | > 10000 | – |
| CC1(C)CC(=O)c2c(S(C)(=O)=O)sc(-c3cc[nH]n3)c2C1 | 7130 | – |
| O=C1NCCc2c(-c3cc[nH]n3)sc(SC3CCCC3)c21 | 459 | – |
| O=C1NCCc2c(-c3cc[nH]n3)sc(SC3CCCCC3)c21 | 919 | – |
| CSc1sc(-c2cc[nH]n2)c2c1C(=O)N(c1ccccc1)CC2 | 4710 | – |
| CSc1sc(-c2cc[nH]n2)c2c1C(=O)NC(C(F)(F)F)C2 (racemic) | 501 | – |
| CSc1sc(-c2cc[nH]n2)c2c1C(=O)NC(C)C2 (racemic) | 1240 | – |
| O=C1NCCc2c(-c3cc[nH]n3)sc(SC3CC3)c21 | 614 | – |
| CC(C)Sc1sc(-c2cc[nH]n2)c2c1C(=O)NCC2 | 988 | – |
| CC1(C)CC(=O)c2c(NC3CCCC3)sc(-c3cc[nH]n3)c2C1 | 2790 | – |
| CC1(C)CC(=O)c2c(SCCc3ccccc3)sc(-c3cc[nH]n3)c2C1 | 1890 | – |

| Structure (SMILES) | Ki [5] [nM] | other results |
| --- | --- | --- |
| Cc1nnc(Sc2sc(-c3cc[nH]n3)c3c2C(=O)CC(C)(C)C3)s1 | 993 | – |
| CCCc1sc(-c2cc[nH]n2)c2c1C(=O)CC(C)(C)C2 | 5290 | – |
| CSc1sc(-c2cc[nH]n2)c2c1C(=O)NC[C@H]2C | 603 | – |
| CCSc1sc(-c2cc[nH]n2)c2c1C(=O)NCC2 | 589 | – |
| CSc1sc(-c2cc[nH]n2)c2c1C(=O)NC(C1CCC1)C2 (racemic) | 1050 | – |
| CC1(C)CC(=O)c2c(SCCO)sc(-c3cc[nH]n3)c2C1 | 515 | – |
| CSc1sc(-c2cc[nH]n2)c2c1C(=O)NC1(CC1)C2 | > 10000 | – |
| CSc1sc(-c2cc[nH]n2)c2c1C(=O)NCC2 | 3410 | concentration at 1 h (in vivo [1]): 500 nM; clearance (in vivo [2]): 47.5 mL/min/kg; CLint scaled (in vitro): 1300 mL/min/kg; concentration at 1 h (in vivo [3]): 28300 nM; half-life (in vivo [4]): 1.4 h; bioavailability (in vivo [6]): 70%; AUC (in vivo [7]): 14 µM·h; Cmax (in vivo [8]): 4800 nM |
| O=C1NCCc2c(-c3cc[nH]n3)sc(Sc3ccccc3)c21 | 4460 | – |
| CSc1sc(-c2cc[nH]n2)c2c1C(=O)N[C@H](c1cccnc1)C2 | > 10000 | – |
| CCCSc1sc(-c2cc[nH]n2)c2c1C(=O)NCC2 | 572 | – |
| CC1(C)CC(=O)c2c(SCc3ccccc3)sc(-c3cc[nH]n3)c2C1 | > 10000 | – |
| CC1(C)CC(=O)c2c(SC3CCCC3)sc(-c3cc[nH]n3)c2C1 | 389 | concentration at 1 h (in vivo [1]): 10 nM; clearance (in vivo [2]): 95.5 mL/min/kg; concentration at 1 h (in vivo [3]): 970 nM; half-life (in vivo [4]): 1.2 h; bioavailability (in vivo [6]): 0.2%; AUC (in vivo [7]): 0.01 µM·h; fraction unbound [9]: 0.007; Cmax (in vivo [8]): 120 nM |
| CSc1sc(-c2cc[nH]n2)c2c1C(=O)NC1(CCCC1)C2 | 411 | – |
| CSc1sc(-c2cc[nH]n2)c2c1C(=O)NC(Cc1ccccc1)C2 (racemic) | 928 | – |

These reach a lower Ki [5]. Values come first.

| Ki [5] [nM] | Structure (SMILES) | other results |
| --- | --- | --- |
| 84 | CCCSc1sc(-c2cc[nH]n2)c2c1C(=O)NC[C@@H]2C | concentration at 1 h (in vivo [1]): 150 nM; clearance (in vivo [2]): 11.9 mL/min/kg; CLint scaled (in vitro): 1200 mL/min/kg; concentration at 1 h (in vivo [3]): 24400 nM; half-life (in vivo [4]): 3.6 h; bioavailability (in vivo [6]): 98%; AUC (in vivo [7]): 46.1 µM·h; Cmax (in vivo [8]): 16000 nM |
| 172 | CC1(C)CC(=O)c2c(SCC3CC3)sc(-c3cc[nH]n3)c2C1 | – |
| 256 | CC(C)Sc1sc(-c2cc[nH]n2)c2c1C(=O)CC(C)(C)C2 | – |
| 312 | CSc1sc(-c2cc[nH]n2)c2c1C(=O)CCC2 | concentration at 1 h (in vivo [1]): 50 nM; clearance (in vivo [2]): 56 mL/min/kg; CLint scaled (in vitro): 6500 mL/min/kg; concentration at 1 h (in vivo [3]): 2330 nM; half-life (in vivo [4]): 6.5 h; bioavailability (in vivo [6]): 33%; AUC (in vivo [7]): 3.8 µM·h; Cmax (in vivo [8]): 1600 nM |
| 233 | CSc1sc(-c2cc[nH]n2)c2c1C(=O)NC1(CCC1)C2 | – |
| 83 | C[C@H]1CNC(=O)c2c(SCC3CC3)sc(-c3cc[nH]n3)c21 | – |
| 319 | CSc1sc(-c2cc[nH]n2)c2c1C(=O)NC[C@@H]2C | – |
| 156 | CCSc1sc(-c2cc[nH]n2)c2c1C(=O)CC(C)(C)C2 | – |
| 68 | CCCSc1sc(-c2cc[nH]n2)c2c1C(=O)NC[C@@H]2CC | – |
| 342 | CSc1sc(-c2cc[nH]n2)c2c1C(=O)NC[C@H]2Cc1ccccc1 | – |
| 271 | CSc1sc(-c2cc[nH]n2)c2c1C(=O)NC(c1ccc(F)cc1)C2 (racemic) | – |
| 58 | CC[C@H]1CNC(=O)c2c(SCC3CC3)sc(-c3cc[nH]n3)c21 | – |
| 295 | O=C1CCCc2c(-c3cc[nH]n3)sc(SC3CCCC3)c21 | – |

— ChEMBL document CHEMBL3797078, “Potent, selective and orally bioavailable leucine-rich repeat kinase 2 (LRRK2) inhibitors” (Bioorg Med Chem Lett, 2016)
